The record followed here is ChEMBL document CHEMBL4256947, “Treatment of pancreatic and related cancers with 5-acyl-6,7-dihydrothieno[3,2-c]pyridines” (2016).

The test concerns the target Protein-cysteine N-palmitoyltransferase HHAT (Homo sapiens) (UniProt Q5VTY9). Description: Inhibition of HA/FLAG/His-tagged Hhat (unknown origin) expressed in human 293T cells at 25 uM using biotinylated Shh peptide as substrate pretreated for 20 mins followed by [125I]-iodo-palitoylCoA/substrate addition measured after 1 hr by gamma counting method relative to control.

Chain of Protein-cysteine N-palmitoyltransferase HHAT (Homo sapiens) (Q5VTY9 whole entry): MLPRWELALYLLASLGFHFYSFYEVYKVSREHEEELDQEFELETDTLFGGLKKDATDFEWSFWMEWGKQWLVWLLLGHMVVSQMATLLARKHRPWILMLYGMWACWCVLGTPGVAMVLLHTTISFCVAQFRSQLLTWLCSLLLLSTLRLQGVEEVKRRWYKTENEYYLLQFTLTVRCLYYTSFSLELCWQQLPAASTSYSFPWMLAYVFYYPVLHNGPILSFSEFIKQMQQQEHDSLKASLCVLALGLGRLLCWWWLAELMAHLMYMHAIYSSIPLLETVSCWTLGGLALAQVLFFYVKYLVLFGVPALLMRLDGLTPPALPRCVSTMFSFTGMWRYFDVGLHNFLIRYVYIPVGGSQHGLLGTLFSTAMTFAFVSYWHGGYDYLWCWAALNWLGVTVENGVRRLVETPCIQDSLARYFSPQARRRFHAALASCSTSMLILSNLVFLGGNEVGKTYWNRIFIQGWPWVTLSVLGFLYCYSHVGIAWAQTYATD

As for `CCC(C)CNCC(=O)N1CCc2sccc2C1c1cccc(C)n1` (configuration not stated), the inhibition was more than 75%.

For the compound `CCC(C)CNCC(=O)N1CCc2sccc2C1c1cccc(C)c1` (configuration not stated), the inhibition was more than 75%.
